Source: patent publication US12377104B1, “Methods for treating a fatty liver disease” (Madrigal Pharmaceuticals, Inc., priority 2024, dated 2025)

Test system: NASH liver fibrosis
Assay: MAESTRO-NASH: qFibrosis assessment of biopsies
Type: in vivo, human
Conditions: Week 52 biopsy, compared with placebo
Description: Fibrosis stage predicts clinical outcomes in NASH/metabolic-associated steatohepatitis (MASH), with liver biopsies as the regulatory standard. Ordinal fibrosis staging on stained slides may limit the ability to visualize dynamic fibrosis features throughout the liver lobule. qFibrosis, an AI-driven fibrosis assessment methodology that utilizes laser driven (SHG) collagen detection on unstained biopsy slides, has identified 30 specific fibrotic features on NASH liver biopsies that may be predictive of liver-related clinical outcomes, progression to cirrhosis and decompensated cirrhosis based on the SteatoSITE population. Non-invasive measures such as baseline MRE or FibroScan VCTE, ELF, and other non-invasive fibrosis markers also predict progression to cirrhosis and decompensated cirrhosis. SteatoSITE contains integrated clinical and pathological data from 940 cases across the NAFLD spectrum with outcome data from electronic health record and pathologist-assigned fibrosis stage and RNA on baseline biopsy. […] Baseline and Week 52 biopsies from MAESTRO-NASH were analyzed for 30 qFibrosis features identified by SteatoSITE that are associated with progression of NASH fibrosis to liver decompensation, and six features with the strongest correlations between baseline pathologist scoring and non-invasive tests were identified.

Question: With CC(C)c1cc(Oc2c(Cl)cc(-n3nc(C#N)c(=O)[nH]c3=O)cc2Cl)n[nH]c1=O [Resmetirom, 2-(3,5-dichloro-4-((5-isopropyl-6-oxo-1,6-dihydropyridazin-3-yl)oxy)phenyl)-3,5-dioxo-2,3,4,5-tetrahydro-1,2,4-triazine-6-carbonitrile] as the compound, how does the “total qFibrosis scores” value read?
Answer: highly significant improvement in fibrosis
